Reference: ChEMBL document CHEMBL1649218, “New treatment option for second-stage African sleeping sickness: in vitro and in vivo efficacy of aza analogs of DB289” (Antimicrob Agents Chemother, 2009)
≈ marks a conversion by molar mass, not a printed value. Calls of active or inactive are those of the source. The rule behind the calls is not given here.

Tests used:
[1] = system: Trypanosoma brucei rhodesiense; experiment: Antitrypanosomal activity against wild-type Trypanosoma brucei rhodesiense STIB900 infected in NMRI mouse assessed as cure from infection at 75 mg/kg, po for 4 days; assay type: functional, organism-based; set-up: dose 75 mg/kg
[2] = system: Trypanosoma brucei rhodesiense; experiment: Antitrypanosomal activity against wild-type Trypanosoma brucei rhodesiense STIB900 infected in NMRI mouse assessed as survival of mouse at 75 mg/kg, po for 4 days; assay type: functional
[3] = system: Trypanosoma brucei rhodesiense; experiment: Antitrypanosomal activity against wild-type Trypanosoma brucei rhodesiense STIB900 by Alamar blue assay; assay type: functional, organism-based
[4] = system: Trypanosoma brucei rhodesiense; experiment: Antitrypanosomal activity against pentamidine-resistant Trypanosoma brucei rhodesiense STIB900 by Alamar blue assay; assay type: functional, organism-based
[5] = system: Trypanosoma brucei rhodesiense; experiment: Antitrypanosomal activity against melasoprol-resistant Trypanosoma brucei rhodesiense STIB900 by Alamar blue assay; assay type: functional, organism-based
[6] = system: Trypanosoma brucei gambiense; experiment: Antitrypanosomal activity against Trypanosoma brucei gambiense K03048 by Alamar blue assay; assay type: functional, organism-based
[7] = system: Trypanosoma brucei gambiense; experiment: Antitrypanosomal activity against Trypanosoma brucei gambiense ITMAP141267 by Alamar blue assay; assay type: functional, organism-based
[8] = system: Trypanosoma brucei gambiense; experiment: Antitrypanosomal activity against Trypanosoma brucei gambiense STIB930 by Alamar blue assay; assay type: functional, organism-based
[9] = system: Trypanosoma brucei brucei; experiment: Antitrypanosomal activity against Trypanosoma brucei brucei BS221 by Alamar blue assay; assay type: functional, organism-based
[10] = system: Trypanosoma brucei brucei; experiment: Antitrypanosomal activity against Trypanosoma brucei brucei AT1KO by Alamar blue assay; assay type: functional, organism-based
[11] = system: Trypanosoma brucei rhodesiense; experiment: Ratio of IC50 for pentamidine-resistant Trypanosoma brucei rhodesiense STIB900 to IC50 for wild-type Trypanosoma brucei rhodesiense STIB900; assay type: functional
[12] = system: Trypanosoma brucei rhodesiense; experiment: Ratio of IC50 for melasoprol-resistant Trypanosoma brucei rhodesiense STIB900 to IC50 for wild-type Trypanosoma brucei rhodesiense […]; assay type: functional
[13] = Ratio of IC50 for Trypanosoma brucei gambiense K03048 to IC50 for wild-type Trypanosoma brucei rhodesiense STIB900; assay type: functional
[14] = Ratio of IC50 for Trypanosoma brucei gambiense ITMAP141267 to IC50 for wild-type Trypanosoma brucei rhodesiense […]; assay type: functional
[15] = Ratio of IC50 for Trypanosoma brucei gambiense STIB930 to IC50 for wild-type Trypanosoma brucei rhodesiense […]; assay type: functional
[16] = system: Trypanosoma brucei brucei; experiment: Ratio of IC50 for Trypanosoma brucei brucei AT1KO to IC50 for Trypanosoma brucei brucei BS221; assay type: functional
[17] = system: Trypanosoma brucei gambiense; experiment: Ratio of IC50 for Trypanosoma brucei gambiense K03048 to IC50 for Trypanosoma brucei gambiense STIB930; assay type: functional
[18] = system: Trypanosoma brucei rhodesiense; experiment: Antitrypanosomal activity against wild-type Trypanosoma brucei rhodesiense STIB900 infected in NMRI mouse assessed as survival of mouse at 20 mg/kg, ip for 4 days; assay type: functional; details: route intraperitoneal
[19] = system: Trypanosoma brucei rhodesiense; experiment: Antitrypanosomal activity against wild-type Trypanosoma brucei rhodesiense STIB900 infected in NMRI mouse assessed as survival of mouse at 5 mg/kg, ip for 4 days; assay type: functional; details: route intraperitoneal
[20] = system: Trypanosoma brucei brucei; experiment: Antitrypanosomal activity against Trypanosoma brucei brucei GVR35 infected in NMRI mouse CNS model assessed as cure from infection at 20 mg/kg, ip for 5 days; assay type: functional, organism-based; set-up: dose 20 mg/kg
[21] = system: Trypanosoma brucei brucei; experiment: Antitrypanosomal activity against Trypanosoma brucei brucei GVR35 infected in NMRI mouse CNS model assessed as survival of mouse at 20 mg/kg, ip for 5 days; assay type: functional; details: route intraperitoneal
[22] = system: Trypanosoma brucei brucei; experiment: Antitrypanosomal activity against Trypanosoma brucei brucei GVR35 infected in NMRI mouse CNS model assessed as survival of mouse at 10 mg/kg, ip for 10 days; assay type: functional; details: route intraperitoneal
Mus musculus = experiment: Toxicity in NMRI mouse CNS model at 25 mg/kg, ip for 10 days; assay type: organism-based; set-up: dose 25 mg/kg, route intraperitoneal; details: in vivo, 240 h
[23] = system: Trypanosoma brucei rhodesiense; experiment: Antitrypanosomal activity against wild-type Trypanosoma brucei rhodesiense STIB900 infected in NMRI mouse assessed as survival of mouse at 50 mg/kg, po for 4 days; assay type: functional
[24] = system: Trypanosoma brucei rhodesiense; experiment: Antitrypanosomal activity against wild-type Trypanosoma brucei rhodesiense STIB900 infected in NMRI mouse assessed as cure from infection at 15 mg/kg, po for 4 days; assay type: functional, organism-based; set-up: dose 15 mg/kg
[25] = system: Trypanosoma brucei rhodesiense; experiment: Antitrypanosomal activity against wild-type Trypanosoma brucei rhodesiense STIB900 infected in NMRI mouse assessed as survival of mouse at 15 mg/kg, po for 4 days; assay type: functional

## N/C(=N\O)c1ccc(-c2ccc(-c3ccc(/C(N)=N\O)cn3)o2)nc1
[1]
  Activity: inactive
[2]
  MSD: 18 days

## N=C(N)c1ccc(-c2ccc(-c3ccc(C(=N)N)cc3)o2)cc1 [FURAMIDINE]
[3]
  IC50: 1 ng/mL (≈ 0.00329 µM)
[4]
  IC50: 14.3 ng/mL (≈ 0.047 µM)
[5]
  IC50: 19 ng/mL (≈ 0.0624 µM)
[6]
  IC50: 4.2 ng/mL (≈ 0.0138 µM)
[7]
  IC50: 3.1 ng/mL (≈ 0.0102 µM)
[8]
  IC50: 5.1 ng/mL (≈ 0.0168 µM)
[9]
  IC50: 1.2 ng/mL (≈ 0.00394 µM)
[10]
  IC50: 15.8 ng/mL (≈ 0.0519 µM)
[11]
  Ratio IC50: 14.7
[12]
  Ratio IC50: 19.5
[13]
  Ratio IC50: 4.3
[14]
  Ratio IC50: 3.2
[15]
  Ratio IC50: 5.3
[16]
  Ratio IC50: 13.1
[17]
  Ratio IC50: 14
[18]
  MSD: >57.75 days
[19]
  MSD: >46 days
[20]
  Activity: inactive
[21]
  MSD: >132.3 days
[22]
  MSD: >112 days
Mus musculus
  Activity: Toxic

## CO/N=C(/N)c1ccc(-c2ccc(-c3ccc(/C(N)=N/O)cc3)o2)cc1
[23]
  MSD: >56 days
[24]
  Activity: inactive
[25]
  MSD: 30.25 days
